# Measured values as given in patent US20250249110A1, “ANTIMICROBIAL PEPTIDE DERIVATIVE AND USE THEREOF” (SICHUAN UNIVERSITY, priority 2016, published 2025).
# Where a SMILES comes first, the peptide text is derived from it. The star is where a group is joined. Succinyl(4-O-cholesteryl) = CC(C)CCC[C@@H](C)[C@H]1CC[C@H]2[C@@H]3CC=C4C[C@@H](OC(=O)CCC(=O)*)CC[C@]4(C)[C@H]3CC[C@]12C
# Key:
# [1] = system: dendritic cells (DC); experiment: Maturation of dendritic cells (flow cytometry); assay type: cell-based, mouse; conditions: 16 h incubation; vs NS group, statistically significant
# Protocol: The maturation of dendritic cells (DC) largely determines the immune response or tolerance of the body. […] Therefore, we detected the effect of DP7-C adjuvant on dendritic cell maturation by flow cytometry.
# The experimental steps are as follows: • (1) Isolate C57/BL mouse primary bone marrow cells and incubate in the induced medium containing 10 ng/ml of GM-CSF and 10 ng/ml of IL-4 for 5 days. • (2) Add the DP7-C adjuvant into DC cell culture, mix well, and incubate for 16 h. • (3) Collect the stimulated DC cells, wash them twice with PBS, re-suspend the cells in 100 μL of PBS, add 1 μL of anti-mouse CD16/CD32, and block at 4° C. for 30 min. • (4) Wash with PBS for 3 times, add 1 μg of FITC-anti-CD80, APC-anti-CD86 and PE-anti-MHC-II, incubate at room temperature for 30 min, wash PBS for 3 times and re-suspend in 200 μL of PBS for flow cytometry.
# [2] = system: red blood cells; experiment: Hemolysis test in vitro; assay type: cell-based, human (healthy volunteers)
# Protocol: In the hemolysis test, DP7 and DP7-C at the same concentration were detected for the hemolysis of red blood cells. • 1. Take the blood of healthy volunteers and put into an anticoagulant tube and gently mix. • 2. Take out the anticoagulant, add isometric physiological saline, mix slowly and evenly, centrifuge at 400×g for 10 min, and discard the supernatant. • 3. Slowly mix the red blood cells and wash with PBS, centrifuge at 400×g for 10 min, discard the supernatant, and wash the cell precipitate with PBS for three times. • 4. Dilute with PBS to obtain 20% (v/v) red blood cell solution, which can be used immediately or stored at 4° C. for about 2 weeks (without hemolysis). • 5. Dilute the drug into a series of concentration gradients with PBS, add 100 μL of drug into a 96-well plate, take 100 μL of 2% Twain 20 as the positive control, add 100 μL of PBS to the negative control. Repeat the process 3 times for each concentration of drug. • 6. Dilute 20% (v/v) of red blood cell solution with PBS according to the volume ratio of 1:20, mix evenly and add to a 96-well plate, with the drug concentration of 100, 200, 400, 600, 800, 1000, 1200, 1600 μg/mL respectively, and incubate at 37° C. for 1 h. • 7. Incubate the mixture of drugs and red blood cells, centrifuge at 900×g for 10 min, add 160 μL of the supernatant to a new 96-well plate, and read the absorbance value at OD 450 nm. • 8. According to the absorbance value of A450, calculate the percentage of hemolysis corresponding to each concentration of drugs.
# The calculation formula of the percentage of hemolysis is: […]
# [3] = system: DC cells; experiment: Uptake of OVA antigen by dendritic cells (flow cytometry); assay type: cell-based, mouse; conditions: 3 h
# Protocol: DC cells are the most powerful antigen presenting cells in the body, which can absorb foreign substances, process and present them to T cells to stimulate immune response. DC cells play an important role in T cell immune response and production of T cell dependent antibody. We examined the effect of DP7-C on DC presenting antigen by flow cytometry.
# The experimental steps are as follows: • (1) Isolate C57/BL mouse primary bone marrow cells and incubate in the induced medium containing 10 ng/ml of GM-CSF and 10 ng/ml of IL-4 for 5 days. • (2) Add the OVA protein markers FITC, OVA or DP7-C/OVA into DC cell culture, mix well and incubate for 3 h. • (3) Collect the stimulated DC cells, wash with PBS twice, re-suspend the cells in 300 μL of PBS, and perform flow cytometry.
# [4] = Critical micelle concentration by pyrene fluorescence probe spectroscopy; assay type: physicochemical; conditions: aqueous solution
# Text: DP7-C can be self-assembled into micelles in aqueous solution. We detected the critical micelle concentration (CMC) of DP7-C by the pyrene fluorescence probe spectroscopy.
# The fluorescence emission spectrum of pyrene in aqueous solution has five fluorescence peaks, and the ratio of the first emission spectrum light intensity I1 to the third emission spectrum light intensity I3 in aqueous solution (the ratio of fluorescence intensity at 373 nm to that at 384 nm) is about 1.8. According to the literature, the surfactant may solubilize nonpolar organic compounds, and the surfactant at different concentrations may solubilize pyrene to varying degrees. Thus, the solubilizing ability of the solution will have an obvious mutation point after the concentration of surfactant exceeds the critical micelle concentration (CMC). […] Therefore, the CMC of […] in the solution can be determined by measuring the fluorescence spectra of pyrene in DP7-C solutions with different concentrations. […] Then, detect I1 and I3 by a fluorescence spectrophotometer. Add different volumes of sample mother liquor to BD tubes containing trace pyrene to reach the concentrations of 0.0001, 0.001, 0.01, 0.025, 0.05, 0.10, 0.125, 0.25, 0.5, 1.0 and 1.5 mg/ml respectively, and determine the fluorescence spectra of each solution. […]
structure (smiles),measurement,setting,value
"CC[C@H](C)[C@H](NC(=O)[C@H](CCCNC(=N)N)NC(=O)[C@H](Cc1c[nH]c2ccccc12)NC(=O)[C@H](CCC(N)=O)NC(=O)[C@@H](NC(=O)CCC(=O)O[C@H]1CC[C@@]2(C)C(=CC[C@H]3[C@@H]4CC[C@H]([C@H](C)CCCC(C)C)[C@@]4(C)CC[C@@H]32)C1)C(C)C)C(=O)N[C@@H](CCCNC(=N)N)C(=O)N[C@H](C(=O)N[C@@H](C)C(=O)N[C@H](C(=O)N[C@H](C(=O)N[C@@H](CCCNC(=N)N)C(=O)N[C@@H](CCCCN)C(N)=O)[C@@H](C)CC)C(C)C)C(C)C [DP7-C, Chol-suc-VQWRIRVAVIRK-NH2] ({Succinyl(4-O-cholesteryl)}-VQWRIRVAVIRK-NH2)","expression of MHC II, CD80 and CD86",[1],increased
same,appearance of hemolysis test,[2]; FIG. 5B,red blood cells are not lysed
same,degree of lysis to red blood cells,"[2]; drug concentration more than 0.8 mg/mL, 37° C. 1 h",much less than DP7
same,uptake of antigen by DC cells,[3]; 2.5 μg/ml,significantly increase
same,uptake of OVA by DC cells,[3]; 40 μg/ml,slightly enhanced
same,critical micelle concentration (CMC),[4],3.47 µg/mL
